From patent publication US4675400A, “Bifunctional derivatives of 4-desacetyl indole-dihydroindole alkaloids” (Eli Lilly and Company, priority 1985, dated 1987)
Values after ≈ are worked out from the molar mass of the structure shown. Structures can show the parent of a compound that is named as a salt.

Experiments:
[1] = tested on: human leukemic cells (CCRF-CEM cell line); assay: C.C.R.F.-C.E.M. Cytotoxicity Assay, growth inhibition of human leukemic cells; format: cell-based; conditions: read-out: IC50 (concentration giving 50% growth inhibition)
Source text: In the Table, column 1 gives the name of the compound and column 2, the IC50 (concentration giving 50% growth inhibition) in mcg/ml.

[2] = pKa (66% DMF); format: physicochemical
[3] = tested on: vincristine-resistant leukemias; conditions: marketed oncolytic agent; cited from earlier work
[4] = tested on: 6C3HED lymphosarcoma; assay: activity against transplanted tumor 6C3HED lymphosarcoma in mice; format: in vivo; conditions: intravenous, day one
Protocol: Certain of the above compounds have also shown activity against a transplanted tumor, 6C3HED lymphosarcoma, in mice. Information as to this activity is summarized in Table 2 in which column 1 gives the name of the compound, column 2, the dose level in mg./kg. and column 3 the percent tumor inhabitation. All compounds were administered on day one by the intravenous route.

[5] = tested on: growing tumor cells; assay: metaphase arrest, block of growing tumor cells in mitosis; format: cell-based; conditions: standard procedures; read-out: concentration at which compound blocked growing tumor cells in mitosis (metaphase arrest)
Protocol: The compounds of this invention in which Z is OH, NH2, NHNH2, or O--C1-3 alkyl have utility as anti-tumor compounds acti transplanted tumors in mice, as mitotic inhibitors and as cytotoxic agents. As evidence of such utility, the ability of N^2 -succinoyl 4-desacetyl VLB 3-carboxhydrazide methyl ester sulfate to cause metaphase arrest was measured by standard procedures.

Compound: CC[C@]1(O)C[C@@H]2CN(CCc3c([nH]c4ccccc34)[C@@](C(=O)OC)(c3cc4c(cc3OC)N(C)[C@H]3[C@@](O)(C(=O)NNC(=O)CCCCC(=O)OC)[C@H](O)[C@]5(CC)C=CCN6CC[C@]43[C@@H]65)C2)C1 [N^2-adipoyl-4-desacetyl VLB 3-carboxyhydrazide methylester]
- IC50 [1]: 0.4 µg/mL (≈ 0.439 µM)

Compound: CC[C@]1(O)C[C@@H]2CN(CCc3c([nH]c4ccccc34)[C@@](C(=O)OC)(c3cc4c(cc3OC)N(C)[C@H]3[C@@](O)(C(=O)NNC(=O)CCC(=O)O)[C@H](O)[C@]5(CC)C=CCN6CC[C@]43[C@@H]65)C2)C1 [Example 1, N^2 -Succinoyl-4-desacetyl VLB 3-carboxhydrazide]
- pKa [2]: 5.1

Compound: CC[C@]1(O)C[C@@H]2CN(CCc3c([nH]c4ccccc34)[C@@](C(=O)OC)(c3cc4c(cc3OC)N(C)[C@H]3[C@@](O)(C(N)=O)[C@H](O)[C@]5(CC)C=CCN6CC[C@]43[C@@H]65)C2)C1 [vindesine, 4-desacetyl VLB 3-carboxamide]
- effectiveness in treating leukemias and neoplasms [3]: effective in treating some vincristine-resistant leukemias in addition to many common neoplasms including germ-cell tumors

Compound: CC[C@]1(O)C[C@@H]2CN(CCc3c([nH]c4ccccc34)[C@@](C(=O)OC)(c3cc4c(cc3OC)N(C)[C@H]3[C@@](O)(C(=O)NNC(=O)CCC(=O)O)[C@H](O)[C@]5(CC)C=CCN6CC[C@]43[C@@H]65)C2)C1 [N^2 --Succinoyl 4-desacetyl VLB 3-carboxhydrazide sulfate]
- % Tumor Inhibition ([4]; 0.625 mg/kg): 13%
- % Tumor Inhibition ([4]; 1.25 mg/kg): 5%
- % Tumor Inhibition ([4]; 2.5 mg/kg): 5%
- % Tumor Inhibition ([4]; 5 mg/kg): 33%
- % Tumor Inhibition ([4]; 10 mg/kg): 77%
- % Tumor Inhibition ([4]; 20 mg/kg): 100%
- % Tumor Inhibition ([4]; 40 mg/kg): 100%

Compound: CC[C@]1(O)C[C@@H]2CN(CCc3c([nH]c4ccccc34)[C@@](C(=O)OC)(c3cc4c(cc3OC)N(C)[C@H]3[C@@](O)(C(=O)NNC(=O)CCC(=O)OC)[C@H](O)[C@]5(CC)C=CCN6CC[C@]43[C@@H]65)C2)C1 [N^2-succinoyl 4-desacetyl VLB 3-carboxhydrazide methyl ester]
- minimal effective concentration [5]: 0.2 µg/mL
- % Tumor Inhibition ([4]; 1 mg/kg): 100%
- % Tumor Inhibition (toxic dose) ([4]; 2 mg/kg): Toxic
- % Tumor Inhibition (toxic dose) ([4]; 4 mg/kg): Toxic
- % Tumor Inhibition ([4]; .5 mg/kg): 100%

Compound: CC[C@]1(O)C[C@@H]2CN(CCc3c([nH]c4ccccc34)[C@@](C(=O)OC)(c3cc4c(cc3OC)N(C)[C@H]3[C@@](O)(C(=O)NNC(=O)CCCC(=O)O)[C@H](O)[C@]5(CC)C=CCN6CC[C@]43[C@@H]65)C2)C1 [Example 8, N^2 -Glutaroyl 4-desacetyl VLB 3-carboxhydrazide]
- pKa [2]: 4.8

Compound: CC[C@]1(O)C[C@@H]2CN(CCc3c([nH]c4ccccc34)[C@@](C(=O)OC)(c3cc4c(cc3OC)N(C)[C@H]3[C@@](O)(C(=O)NNC(=O)CCCC(=O)O)[C@H](O)[C@]5(CC)C=CCN6CC[C@]43[C@@H]65)C2)C1 [N^2-glutaroyl 4-desacetyl VLB 3-carboxhydrazide sulfate]
- IC50 [1]: 0.1 µg/mL
